Reference: patent US10849881B2, “Octahydro-cyclobuta[1,2-c;3,4-c′]dipyrrol-2-yl” (Hoffmann-La Roche Inc., priority 2013, dated 2020)
pIC50: −log10 of the molar value.

molecular target: ATX (human His-tagged) (Homo sapiens (Human), UniProt Q13822); assay: Human ATX enzyme inhibition assay (fluorescence quenching, MR121 substrate); assay type: biochemical; details: 30 nM ATX, 1 μM MR121 substrate, 30° C., pH 8.0
Procedure: Human ATX Enzyme Inhibition Assay
ATX inhibition was measured by a fluorescence quenching assay using a specifically labeled substrate analogue (MR121 substrate). To obtain this MR121 substrate, BOC and TBS protected 6-amino-hexanoic acid (R)-3-({2-[3-(2-{2-[2-(2-amino-ethoxy)-ethoxy]-ethoxy}-ethoxy)-propionylamino]-ethoxy}-hydroxy-phosphoryloxy)-2-hydroxy-propyl ester (Ferguson et al., Org Lett 2006, 8 (10), 2023) was labeled with MR121 fluorophore (CAS 185308-24-1, 1-(3-carboxypropyl)-11-ethyl-1,2,3,4,8,9,10,11-octahydro-dipyrido[3,2-b:2′,3′-i]phenoxazin-13-ium) on the free amine of the ethanolamine side and then, after deprotection, subsequently with tryptophan on the side of the aminohexanoic acid.
Assay working solutions were made as follows:
Assay buffer (50 mM Tris-HCl, 140 mM NaCl, 5 mM KCl, 1 mM CaCl2, 1 mM MgCl2, 0.01% Triton-X-100, pH 8.0;
ATX solution: ATX (human His-tagged) stock solution (1.08 mg/mL in 20 mM bicine, pH 8.5, 0.15 M NaCl, 10% glycerol, 0.3% CHAPS, 0.02% NaN3), diluted to 1.4-2.5× final concentration in assay buffer;
MR121 substrate solution: MR121 substrate stock solution (800 μM MR121 substrate in DMSO), diluted to 2-5× final concentration in assay buffer.
Test compounds (10 mM stock in DMSO, 8 μL) were obtained in 384 well sample plates (Corning Costar #3655) and diluted with 8 μL DMSO. Row-wise serial dilutions were made by transferring 8 μL cpd solution to the next row up to row O. The compound and control solutions were mixed five times and 2 μL were transferred to 384 well assay plates (Corning Costar #3702). Then, 15 μL of 41.7 nM ATX solution was added (30 nM final concentration), mixed five times and then incubated for 15 minutes at 30° C. 10 μL of MR121 substrate solution was added (1 μM final concentration), mixed 30 times and then incubated for 15 minutes at 30′C.

In order of falling pIC50:
1. CCOc1cc(C(=O)N2C[C@@H]3[C@H]4CN(C(=O)c5ccc6[nH]nnc6c5)C[C@H]4[C@@H]3C2)cc2c1ccn2CC(F)(F)F [Example 1.085, (1H-benzotriazol-5-yl)-{(3aS,3bS,6aR,6bR)-5-[4-ethoxy-1-(2,2,2-trifluoro-ethyl)-1H-indole-6-carbonyl]-octahydro-cyclobuta[1,2-c;3,4-c′]dipyrrol-2-yl}-methanone]  8.57
2. CCn1ccc2c(OCC(F)(F)F)c(C(=O)N3C[C@@H]4[C@H]5CN(C(=O)c6ccc7[nH]nnc7c6)C[C@H]5[C@@H]4C3)ccc21 [Example 1.082, [(3aS,3bS,6aR,6bR)-5-(1H-benzotriazole-5-carbonyl)-octahydro-cyclobuta[1,2-c;3,4-c′]dipyrrol-2-yl]-[1-ethyl-4-(2,2,2-trifluoro-ethoxy)-1H-indol-5-yl]-methanone]  8.52
3. CC(C)Oc1cc(C(=O)N2C[C@@H]3[C@H]4CN(C(=O)c5ccc6[nH]nnc6c5)C[C@H]4[C@@H]3C2)nc2ccccc12 [Example 1.067, [(3aR,3bS,6aR,6bS)-5-(1H-benzotriazole-5-carbonyl)-octahydro-cyclobuta[1,2-c;3,4-c′]dipyrrol-2-yl]-(4-isopropoxy-quinolin-2-yl)-methanone]  8.30
4. CCOc1c(C(=O)N2C[C@@H]3[C@H]4CN(C(=O)c5ccc6[nH]nnc6c5)C[C@H]4[C@@H]3C2)ccc2c1ccn2CC [Example 1.081, [(3aS,3bS,6aR,6bR)-5-(1H-benzotriazole-5-carbonyl)-octahydro-cyclobuta[1,2-c;3,4-c′]dipyrrol-2-yl]-(4-ethoxy-1-ethyl-1H-indol-5-yl)-methanone]  8.12
5. O=C(c1ccc2[nH]nnc2c1)N1C[C@@H]2[C@H](C1)[C@H]1CN(C(=O)c3cc4ccc(OC(F)(F)F)cc4[nH]3)C[C@@H]21 [Example 1.011, [(3aR,3bS,6aR,6bS)-5-(1H-benzotriazole-5-carbonyl)-octahydro-cyclobuta[1,2-c;3,4-c′]dipyrrol-2-yl]-(6-trifluoromethoxy-1H-indol-2-yl)-methanone]  8.10
6. COCCOc1cc(C(=O)N2C[C@@H]3[C@H]4CN(C(=O)c5ccc6[nH]nnc6c5)C[C@H]4[C@@H]3C2)nc2ccccc12 [Example 1.069, [(3aR,3bS,6aR,6bS)-5-(1H-benzotriazole-5-carbonyl)-octahydro-cyclobuta[1,2-c;3,4-c′]dipyrrol-2-yl]-[4-(2-methoxy-ethoxy)-quinolin-2-yl]-methanone]  8.10
7. O=C(c1cnc(OCC(F)(F)F)c(C(F)(F)F)c1)N1C[C@@H]2[C@H](C1)[C@H]1CN(C(=O)c3ccc4[nH]nnc4c3)C[C@@H]21 [Example 1.105, (1H-benzotriazol-5-yl)-{(3aS,3bS,6aR,6bR)-5-[6-(2,2,2-trifluoro-ethoxy)-5-trifluoromethyl-pyridine-3-carbonyl]-octahydro-cyclobuta[1,2-c;3,4-c′]dipyrrol-2-yl}-methanone]  8.10
8. CCOc1cc(C(=O)N2C[C@@H]3[C@H]4CN(C(=O)c5ccc6[nH]nnc6c5)C[C@H]4[C@@H]3C2)nc2cc(OC)ccc12 [Example 1.090, (1H-benzotriazol-5-yl)-[(3aS,3bR,6aS,6bR)-5-(4-ethoxy-7-methoxy-quinoline-2-carbonyl)-octahydro-cyclobuta[1,2-c;3,4-c′]dipyrrol-2-yl]-methanone]  7.72
9. O=C(c1ccc2[nH]nnc2c1)N1C[C@@H]2[C@H](C1)[C@H]1CN(C(=O)c3cccc(OCC(F)(F)F)n3)C[C@@H]21 [Example 1.098, (1H-benzotriazol-5-yl)-{(3aS,3bR,6aS,6bR)-5-[6-(2,2,2-trifluoro-ethoxy)-pyridine-2-carbonyl]-octahydro-cyclobuta[1,2-c;3,4-c′]dipyrrol-2-yl}-methanone]  6.07
